Key:
[1] = test system: patients suffering from amyotrophic lateral sclerosis (ALS); assay: Study AB10015: randomized, double-blind, placebo-controlled phase 2/3 study of masitinib in combination with riluzole versus placebo in combination with riluzole (interim and final analysis); format: in vivo, human; details: for Δ ALSFRS-R = (least squares means) change from baseline to week 48 in ALSFRS-R score: mITT; for Delta [CI] = absolute difference between subpopulations in Δ ALSFRS-R: in points
Text: There are two distinct populations of ALS patients: a subpopulation of “normal progressors” and a subpopulation of “faster progressors”. The targeted population for primary analysis is the subpopulation of “normal progressors”. “Normal progressors” are defined as ALS patients whose progression of ALSFRS-R score before randomization is less than 1.1 point per month. This population should represent about 80% of ALS patients. The population of “normal progressors+faster progressors” comprises all ALS patients, “normal progressor” ALS patients or “faster progressor” ALS patients. “Faster progressors” are defined as ALS patients whose progression of ALSFRS-R score before randomization is greater than or equal to 1.1 points per month. Main Inclusion Criteria: • Female or male patient aged between 18 and 75 years of age, with a weight >50 kg and body mass index between 18 and 35 kg/m^2; • Familial or sporadic ALS; • Patient diagnosed with laboratory supported, clinically probable or definite ALS according to the World Federation of Neurology Revised El Escorial criteria [Brooks B R. […] For the morning dose, tablets were taken during breakfast. In case of nausea, the administration took place during lunch. For the evening dose, tablets were taken during dinner. Modified Intent-To-Treat (mITT) dataset—The mITT population will include all ITT patients with probable or definite amyotrophic lateral sclerosis who took at least one dose of study treatment (masitinib or placebo). Change from baseline to week 48 in the revised Amyotrophic Lateral Sclerosis Functional Rating Scale (ALSFRS-R) In accordance with study AB10015 protocol, an interim analysis was planned to be performed after around 50% of the information became available for analysis. At the time of the interim analysis, 192 (50%) out of a planned 381 patients who had been randomized before the 12 Feb. 2015 could have reached the week 48 visit. […] The interim analysis primary endpoint is based on the change from baseline to week 48 in ALSFRS-R. Primary analysis was performed in the mITT “normal progressor” (i.e. non-aggressive or moderately aggressive ALS) subpopulation. […] Missing values of ALSFRS-R at study visit were replaced based on the Modified Last Observation Carried Forward (mLOCF) method. Absolute change from baseline to week 48 in ALSFRS-R was estimated using a model of analysis of covariance (ANCOVA) adjusted on following factors: treatment (masitinib or placebo), and stratification criteria of: ALS patient subpopulation, progression of ALSFRS-R score (point/month) from date of first symptom to baseline, ALSFRS-R score at baseline, site of onset (bulbar versus others), age at baseline; and geographical region. Two-sided (1-alpha) confidence interval of the difference of mean change from baseline to week 48 between groups was calculated. The primary analysis used a re-randomization test. The re-randomization test, also referred to as a randomization test or permutation test, is a type of statistical significance test in which the distribution of the test statistic under the null hypothesis is obtained by calculating all possible values of the test statistic under rearrangements of the labels on the observed data points. The proportion of replicates for which the p-value of treatment factor is at least as small as the p-value of treatment factor from the original data was calculated. In this proportion the observed p-value of treatment factor is also accounted for as one replicate in numerator and denominator. This proportion is the p-value for the randomization test. […] To control overall family-wise type I error rate at the study level, analyses of efficacy was conducted in a stepwise manner (fixed sequence method). Fixed sequence method ensures that the population claimed and treated with a selected dosage will be done by controlling the global family-wise error rate at the 0.0311 level for the primary analysis. […]

[2] = test system: people with ALS; details: cited from earlier work

With `Cc1ccc(NC(=O)c2ccc(CN3CCN(C)CC3)cc2)cc1Nc1nc(-c2cccnc2)cs1` [Masitinib (4.5), 4-(4-methylpiperazin-1-ylmethyl)-N-[4-methyl-3-(4-pyridin-3ylthiazol-2-ylamino)phenyl]benzamide] the “Δ ALSFRS-R = (least squares means) change from baseline to week 48 in ALSFRS-R score” value ([1]; final AB10015, faster progressor subgroup (≥1.1 pts/m), masitinib 4.5 mg/kg/day plus riluzole, comparison with placebo arm) was −17.9268, the “Δ ALSFRS-R = (least squares means) change from baseline to week 48 in ALSFRS-R score” value ([1]; final AB10015, masitinib 4.5 mg/kg/day treated faster progressors (≥1.1 pts/m), comparison moderately aggressive vs faster progressors) was −25.0567 and the “Δ ALSFRS-R = (least squares means) change from baseline to week 48 in ALSFRS-R score” value ([1]; final AB10015, masitinib 4.5 mg/kg/day treated faster progressors (≥1.1 pts/m), comparison non-aggressive vs faster progressors) was −18.2920. The “Δ ALSFRS-R = (least squares means) change from baseline to week 48 in ALSFRS-R score” value ([1]; final AB10015, masitinib 4.5 mg/kg/day treated moderately aggressive (≥0.8 to <1.1 pts/m), comparison moderately aggressive vs faster progressors) was −15.7258, the “Δ ALSFRS-R = (least squares means) change from baseline to week 48 in ALSFRS-R score” value ([1]; final AB10015, masitinib 4.5 mg/kg/day treated moderately aggressive plus aggressive (≥0.8 pts/m), comparison with non-aggressive) was −15.9080 and the “Δ ALSFRS-R = (least squares means) change from baseline to week 48 in ALSFRS-R score” value ([1]; final AB10015, masitinib 4.5 mg/kg/day treated non-aggressive (<0.8 pts/m), comparison non-aggressive vs faster progressors) was −7.4509. The “Δ ALSFRS-R = (least squares means) change from baseline to week 48 in ALSFRS-R score” value ([1]; final AB10015, masitinib 4.5 mg/kg/day treated non-aggressive (<0.8 pts/m), comparison non-aggressive vs moderately aggressive plus aggressive) was −7.8085, the “Delta [CI] = absolute difference between subpopulations in Δ ALSFRS-R” value ([1]; final AB10015, masitinib 4.5 mg/kg/day treated patients, moderately aggressive (≥0.8 to <1.1 pts/m) vs faster progressors (≥1.1 pts/m), week 48, CI [−19.4226, 0.761], P=0.0687) was −9.3308[−19.4226; and the “Delta [CI] = absolute difference between subpopulations in Δ ALSFRS-R” value ([1]; final AB10015, masitinib 4.5 mg/kg/day treated patients, non-aggressive (<0.8 pts/m) vs moderately aggressive plus aggressive (≥0.8 pts/m), week 48, CI [−12.3719, −3.8271], P=0.0003) was −8.0995[−12.3719;. For the same compound, the “Δ ALSFRS-R = (least squares means) change from baseline to week 48 in ALSFRS-R score” value ([1]; final AB10015, non-aggressive subgroup (<0.8 pts/m), masitinib 4.5 mg/kg/day plus riluzole, comparison with placebo arm) was −8.2552, the “Δ ALSFRS-R = (least squares means) change from baseline to week 48 in ALSFRS-R score” value ([1]; final AB10015, normal progressor subgroup (<1.1 pts/m), masitinib 4.5 mg/kg/day plus riluzole, comparison with placebo arm) was −8.7045 and the “Δ ALSFRS-R = (least squares means) change from baseline to week 48 in ALSFRS-R score” value ([1]; final AB10015, overall study population (normal progressor and faster progressor), masitinib 4.5 mg/kg/day plus riluzole, comparison with placebo arm) was −10.7019. For the same compound, the “conclusion on treatment effectiveness” value ([1]; final analysis, ALS patients with progression of ALSFRS-R score prior to treatment initiation of less than 1.1 points per month) was “effective treatment”, the “Δ ALSFRS-R = (least squares means) change from baseline to week 48 in ALSFRS-R score” value ([1]; final analysis, masitinib 4.5 mg/kg/day treated faster progressors (>1.1 pts/m), comparison normal vs faster progressors) was −19.5855 and the “Δ ALSFRS-R = (least squares means) change from baseline to week 48 in ALSFRS-R score” value ([1]; final analysis, masitinib 4.5 mg/kg/day treated normal progressors (<1.1 pts/m), comparison normal vs faster progressors) was −8.3939. For the same compound, the “Δ ALSFRS-R = (least squares means) change from baseline to week 48 in ALSFRS-R score” value ([1]; final analysis, moderately aggressive subgroup (≥0.8 to <1.1 pts/m), masitinib 4.5 mg/kg/day plus riluzole, comparison with placebo arm) was −11.0031, the “conclusion on treatment effectiveness” value ([1]; final analysis, progression of ALSFRS-R score of at least 1.1 points per month (aggressive ALS)) was “ineffective treatment” and the “conclusion on treatment effectiveness” value ([1]; final analysis, progression of ALSFRS-R score of less than 0.8 points per month (non-aggressive ALS)) was “most effective”. The “conclusion on treatment effectiveness” value ([1]; final analysis, progression of ALSFRS-R score of ≥0.8 to <1.1 points per month (moderately aggressive ALS), to a lesser extent than non-aggressive) was “effective”, the “difference between treatment-arms (masitinib versus placebo) in ALSFRS-R change from baseline to week 48” value ([1]; final, faster progressors subpopulation (≥1.1 points per month), 4.5 mg/kg/day) was “No significant difference” and the “average decrease in ALSFRS-R score” value ([1]; final, masitinib 4.5 mg/kg/day treated faster progressors, week 48) was 19.6 points. For the same compound, the “average decrease in ALSFRS-R score” value ([1]; final, masitinib 4.5 mg/kg/day treated normal progressors, week 48) was 8.4 points, the “difference in decrease of ALSFRS-R score between normal progressors and faster progressors” value ([1]; final, masitinib 4.5 mg/kg/day treated patients, week 48, P<0.001) was 11.2 points and the “treatment effect in terms of ALSFRS-R score of moderately aggressive ALS patients over aggressive ALS patients” value ([1]; final, masitinib treated, ≥0.8 to <1.1 vs ≥1.1 points per month) was “strong trend in treatment effect”. The “retardation in ALSFRS-R score, difference masitinib versus placebo” value ([1]; final, moderately aggressive ALS patients (≥0.8 to <1.1 points per month), 4.5 mg/kg/day, week 48) was 2.2 points, the “change in ALSFRS-R score” value ([1]; final, moderately aggressive ALS patients (≥0.8 to <1.1 points per month), masitinib 4.5 mg/kg/day, week 48, placebo −13.2) was −11 points and the “retardation in ALSFRS-R score, difference masitinib versus placebo” value ([1]; final, non-aggressive ALS patients (<0.8 points per month), 4.5 mg/kg/day, week 48) was 3.4 points. For the same compound, the “change in ALSFRS-R score” value ([1]; final, non-aggressive ALS patients (<0.8 points per month), masitinib 4.5 mg/kg/day, week 48, placebo −11.7) was −8.3 points, the “difference in ALSFRS-R score between masitinib and placebo” value ([1]; final, normal progressors (<1.1 points per month), 4.5 mg/kg/day, week 48) was 3.4 points and the average decrease in ALSFRS-R score ([1]; final, normal progressors (<1.1 points per month), masitinib 4.5 mg/kg/day, week 48, placebo −12.1, P=0.0142) was 8.7 points. The “difference between treatment-arms (masitinib versus placebo) in ALSFRS-R change from baseline to week 48” value ([1]; final, overall study population (normal progressor and faster progressor patients), 4.5 mg/kg/day, P=0.11) was “no significant difference”, the “Δ ALSFRS-R = (least squares means) change from baseline to week 48 in ALSFRS-R score” value ([1]; interim AB10015, faster progressor subgroup (≥1.1 points/month), masitinib 4.5 mg/kg/day plus riluzole, comparison with placebo arm) was −20.77 and the “Δ ALSFRS-R = (least squares means) change from baseline to week 48 in ALSFRS-R score” value ([1]; interim AB10015, masitinib 4.5 mg/kg/day treated faster progressors (≥1.1 points/month), subpopulation comparison normal vs faster) was −17.90. For the same compound, the “Δ ALSFRS-R = (least squares means) change from baseline to week 48 in ALSFRS-R score” value ([1]; interim AB10015, masitinib 4.5 mg/kg/day treated normal progressors (<1.1 points/month), subpopulation comparison normal vs faster) was −5.57, the “Δ ALSFRS-R = (least squares means) change from baseline to week 48 in ALSFRS-R score” value ([1]; interim AB10015, normal progressor subgroup (<1.1 points/month), masitinib 4.5 mg/kg/day plus riluzole, comparison with placebo arm) was −9.02 and the “difference between treatment-arms (masitinib versus placebo) in ALSFRS-R change from baseline to week 48” value ([1]; interim, faster progressor subpopulation, 4.5 mg/kg/day) was “No significant difference”. The “average decrease in ALSFRS-R score” value ([1]; interim, masitinib 4.5 mg/kg/day treated faster progressor (aggressive ALS) patients, week 48) was 17.9 points, the “average decrease in ALSFRS-R score” value ([1]; interim, masitinib 4.5 mg/kg/day treated normal progressor (non-aggressive or moderately aggressive ALS) patients, week 48) was 5.57 points and the “average decrease in ALSFRS-R score” value ([1]; interim, normal progressors, masitinib 4.5 mg/kg/day, baseline to week 48, placebo 14.51, P=0.0032) was 9.02 points.

For `Nc1nc2ccc(OC(F)(F)F)cc2s1` [riluzole, 6-(trifluoromethoxy)benzothiazol-2-amine], the “effect on patient function” value ([2]; any of the randomized trials considered separately) is given as “no beneficial effect”, the “effect on bulbar and limb function” value ([2]; data of the trials combined, not on muscle strength, to be interpreted with caution) is given as “small beneficial effect” and the “safety of the drug” value ([2]; riluzole 100 mg, meta-analysis) is given as “not a major concern”.
